Reference: PubChem BioAssay AID1963849 (Molecular Pharmacology Branch, DTP, NCI, 2024)

Test system: 299254-011-R-J1-PDC complex spheroid viability
Test: Anticancer human tumor 299254-011-R-J1-PDC patient-derived melanoma cell line growth inhibition [POLQ]
Details: for IC50: curve of first compound; for viability, T/C: stronger effect = lower value
Method: Multicellular complex tumor spheroid response to Polymerase (POL) inhibitors (novobiocin, ART-558, RP6685) in combination with a variety of drugs and investigational agents in selected tumor cell lines
The POL inhibitors (novobiocin, ART-558, and RP6685) were evaluated both individually and in combination with standard of care and investigational anticancer small molecules within a complex spheroid model of solid tumors. . Complex spheroids include a stromal component modeled by human endothelial cells (HUVEC) and fibroblasts modeled by human mesenchymal stem cells (MSCs). The concentration ranges selected for each drug and investigational agent were based upon clinically achievable concentrations if the clinical Cmax of the agent was known.
Compounds. The drugs and investigational agents: novobiocin (NSC847541), ART-558 (NSC835418), RP-6685 (NSC848927), peposertib (NSC802822), ceralasertib (NSC780249), elimusertib (NSC800525), camonsertib (NSC841442), AZD-1390 (NSC803789), olaparib (NSC753686), talazoparib (NSC767125), rucaparib (NSC756644), sotorasib (NSC818433), MRTX-1133 (NSC836407), SN-38 (NSC673596), topotecan (NSC609699), epotoside (NSC141540), doxorubicin (NSC123127), gemcitabine (NSC613327), 5-fluorouracil (NSC19893), paclitaxel (NSC125973), vemurafenib (NSC761431), MSA-2 (NSC828583), SN-011 (NSC837082), adavosertib (NSC754352), prexasertib (NSC758257), carboplatin (NSC241240) and oxaliplatin (NSC266046), were obtained from the National Cancer Institute (NCI) Developmental Therapeutics Program Chemical Repository (21). The FDA-approved anticancer drug set is available from the Developmental Therapeutics Program at https://dtp.cancer.gov/organization/dscb/obtaining/. […] The stock solutions were prepared in dimethyl sulfoxide (DMSO, Sigma-Aldrich, St. Louis, MO, cat. D2650), except for the platinum compounds which were prepared in saline (Quality Biological, Gaithersburg, MD, cat. 114-055-101), at 800-fold the tested concentration and stored at -70 degrees C prior to their use. All drugs and investigational agents were tested over a range starting from a high concentration at or near the clinical Cmax and decreasing in half-log increments. If the clinical Cmax for an agent had not been determined, the highest concentration tested was 10 microM, except for SN-38, which was tested at a high concentration of 1 microM.
Cell Culture. All cells were maintained in an incubator at 37 degrees C and 5% CO2 with 95% humidity. The PDC lines were cultured according to standard operating procedures established by the NCI PDMR (https://pdmr.cancer.gov). Table 3 of the manuscript, lists the cell lines along with the number of the three cell types plated to form the mct-spheroids and media for tumor cell growth. After thawing, all PDC lines, except 997537-175-T-J1-PDC and 415267-285-R-J2-PDC, were cultured in Matrigel-coated flasks prepared with a working solution of 1X Ham's F-12 nutrient mix, without supplementation (Thermo Fisher Scientific, cat. 11765054), 100 U/mL penicillin-streptomycin (Thermo Fisher Scientific, cat. 15140122), and 2.5% Matrigel (Corning Inc., Corning, NY, cat. 354248) for the first three passages. The two PDC lines 997537-175-T-J1-PDC and 415267-285-R-J2-PDC were cultured on uncoated flasks. The 857933-349-R-J2-PDC line was cultured in 6C/Colon 1B media containing advanced DMEM/F-12 (Thermo Fisher Scientific, cat. 12634028), 10 mM HEPES (Thermo Fisher Scientific, cat. 15630080), 1X GlutaMAX supplement (Thermo Fisher Scientific, cat. 35050061), 0.1 mg/mL primocin (InvivoGen, San Diego, CA, cat. ant-pm-2), 10% defined fetal bovine serum, heat inactivated (HyClone Laboratories Inc., Logan, UT, cat. SH30070.03HI), 50% L-WRN conditioned media (ATCC, cat. CRL-3276), 1.25 mM N-Acetyl-L-cysteine (Sigma-Aldrich, cat. A9165), 10 mM nicotinamide (Sigma-Aldrich, cat. N0636), 1X B-27 supplement (Thermo Fisher Scientific, cat. 17504044), 1X N-2 supplement (Thermo Fisher Scientific, cat. […]
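Note: spheroids exposed to drugs for one week before measurement.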
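Throughout, for viability, T/C: percent viability relative to DMSO vehicle control taken as 100%.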

## CCCS(=O)(=O)Nc1ccc(F)c(C(=O)c2c[nH]c3ncc(-c4ccc(Cl)cc4)cc23)c1F + COC1C(OC(N)=O)C(O)C(Oc2ccc3c(O)c(NC(=O)c4ccc(O)c(CC=C(C)C)c4)c(=O)oc3c2C)OC1(C)C
Second compound 0.0316 µM
  IC50: > 10000 nM
Second compound 0.1 µM
  IC50: > 10000 nM
Second compound 0.316 µM
  IC50: > 10000 nM
Second compound 1 µM
  IC50: > 10000 nM
Second compound 3.16 µM
  IC50: > 10000 nM
Second compound 10 µM
  IC50: > 10000 nM
Second compound 0.0316 µM, first compound 0.0316 µM
  viability, T/C: 116%
Second compound 0.0316 µM, first compound 0.1 µM
  viability, T/C: 94.3%
Second compound 0.0316 µM, first compound 0.316 µM
  viability, T/C: 107%
Second compound 0.0316 µM, first compound 1 µM
  viability, T/C: 136%
Second compound 0.0316 µM, first compound 3.16 µM
  viability, T/C: 107%
Second compound 0.0316 µM, first compound 10 µM
  viability, T/C: 69.6%
Second compound 0.1 µM, first compound 0.0316 µM
  viability, T/C: 111%
Second compound 0.1 µM, first compound 0.1 µM
  viability, T/C: 97.4%
Second compound 0.1 µM, first compound 0.316 µM
  viability, T/C: 118%
Second compound 0.1 µM, first compound 1 µM
  viability, T/C: 105%
Second compound 0.1 µM, first compound 3.16 µM
  viability, T/C: 123%
Second compound 0.1 µM, first compound 10 µM
  viability, T/C: 63.8%
Second compound 0.316 µM, first compound 0.0316 µM
  viability, T/C: 93.6%
Second compound 0.316 µM, first compound 0.1 µM
  viability, T/C: 99.2%
Second compound 0.316 µM, first compound 0.316 µM
  viability, T/C: 120%
Second compound 0.316 µM, first compound 1 µM
  viability, T/C: 117%
Second compound 0.316 µM, first compound 3.16 µM
  viability, T/C: 121%
Second compound 0.316 µM, first compound 10 µM
  viability, T/C: 68.8%
Second compound 1 µM, first compound 0.0316 µM
  viability, T/C: 94%
Second compound 1 µM, first compound 0.1 µM
  viability, T/C: 98.4%
Second compound 1 µM, first compound 0.316 µM
  viability, T/C: 99.2%
Second compound 1 µM, first compound 1 µM
  viability, T/C: 107%
Second compound 1 µM, first compound 3.16 µM
  viability, T/C: 118%
Second compound 1 µM, first compound 10 µM
  viability, T/C: 67.5%
Second compound 3.16 µM, first compound 0.0316 µM
  viability, T/C: 108%
Second compound 3.16 µM, first compound 0.1 µM
  viability, T/C: 113%
Second compound 3.16 µM, first compound 0.316 µM
  viability, T/C: 116%
Second compound 3.16 µM, first compound 1 µM
  viability, T/C: 126%
Second compound 3.16 µM, first compound 3.16 µM
  viability, T/C: 124%
Second compound 3.16 µM, first compound 10 µM
  viability, T/C: 82.8%
Second compound 10 µM, first compound 0.0316 µM
  viability, T/C: 106%
Second compound 10 µM, first compound 0.1 µM
  viability, T/C: 112%
Second compound 10 µM, first compound 0.316 µM
  viability, T/C: 110%
Second compound 10 µM, first compound 1 µM
  viability, T/C: 118%
Second compound 10 µM, first compound 3.16 µM
  viability, T/C: 118%
Second compound 10 µM, first compound 10 µM
  viability, T/C: 83.4%

## CC(=O)O[C@H]1C(=O)[C@@]2(C)[C@H]([C@H](OC(=O)c3ccccc3)[C@]3(O)C[C@H](OC(=O)[C@H](O)[C@@H](NC(=O)c4ccccc4)c4ccccc4)C(C)=C1C3(C)C)[C@]1(OC(C)=O)CO[C@@H]1C[C@@H]2O + Cc1cccc(N(C)C(=O)C2C(O)CCN2c2nc(C)cc(C(F)(F)F)c2C#N)c1
Second compound 0.0316 µM
  IC50: 123 nM
Second compound 0.1 µM
  IC50: 91.7 nM
Second compound 0.316 µM
  IC50: 69.8 nM
Second compound 1 µM
  IC50: 73.4 nM
Second compound 3.16 µM
  IC50: 26.8 nM
Second compound 10 µM
  IC50: < 9.49 nM
Second compound 0.0316 µM, first compound 0.00949 µM
  viability, T/C: 99.2%
Second compound 0.0316 µM, first compound 0.03 µM
  viability, T/C: 79.7%
Second compound 0.0316 µM, first compound 0.0949 µM
  viability, T/C: 55.1%
Second compound 0.0316 µM, first compound 0.3 µM
  viability, T/C: 35.7%
Second compound 0.0316 µM, first compound 0.949 µM
  viability, T/C: 22%
Second compound 0.0316 µM, first compound 3 µM
  viability, T/C: 24.4%
Second compound 0.1 µM, first compound 0.00949 µM
  viability, T/C: 84.3%
Second compound 0.1 µM, first compound 0.03 µM
  viability, T/C: 70.7%
Second compound 0.1 µM, first compound 0.0949 µM
  viability, T/C: 49.6%
Second compound 0.1 µM, first compound 0.3 µM
  viability, T/C: 31.3%
Second compound 0.1 µM, first compound 0.949 µM
  viability, T/C: 23.2%
Second compound 0.1 µM, first compound 3 µM
  viability, T/C: 20.7%
Second compound 0.316 µM, first compound 0.00949 µM
  viability, T/C: 90.2%
Second compound 0.316 µM, first compound 0.03 µM
  viability, T/C: 68.6%
Second compound 0.316 µM, first compound 0.0949 µM
  viability, T/C: 41.7%
Second compound 0.316 µM, first compound 0.3 µM
  viability, T/C: 33.1%
Second compound 0.316 µM, first compound 0.949 µM
  viability, T/C: 29.8%
Second compound 0.316 µM, first compound 3 µM
  viability, T/C: 23.4%
Second compound 1 µM, first compound 0.00949 µM
  viability, T/C: 84.9%
Second compound 1 µM, first compound 0.03 µM
  viability, T/C: 69.2%
Second compound 1 µM, first compound 0.0949 µM
  viability, T/C: 43.4%
Second compound 1 µM, first compound 0.3 µM
  viability, T/C: 31.6%
Second compound 1 µM, first compound 0.949 µM
  viability, T/C: 21.3%
Second compound 1 µM, first compound 3 µM
  viability, T/C: 23.2%
Second compound 3.16 µM, first compound 0.00949 µM
  viability, T/C: 68.5%
Second compound 3.16 µM, first compound 0.03 µM
  viability, T/C: 48%
Second compound 3.16 µM, first compound 0.0949 µM
  viability, T/C: 33.8%
Second compound 3.16 µM, first compound 0.3 µM
  viability, T/C: 27.5%
Second compound 3.16 µM, first compound 0.949 µM
  viability, T/C: 21.7%
Second compound 3.16 µM, first compound 3 µM
  viability, T/C: 21.4%
Second compound 10 µM, first compound 0.00949 µM
  viability, T/C: 49%
Second compound 10 µM, first compound 0.03 µM
  viability, T/C: 31.2%
Second compound 10 µM, first compound 0.0949 µM
  viability, T/C: 20.4%
Second compound 10 µM, first compound 0.3 µM
  viability, T/C: 23.2%
Second compound 10 µM, first compound 0.949 µM
  viability, T/C: 22.7%
Second compound 10 µM, first compound 3 µM
  viability, T/C: 19.6%
